# Source: US20040170622A1, “Methods and compositions for modulating XBP-1 activity” (President and Fellows of Harvard College, priority 2002, published 2004)
# Assays:
# Assay type in all cases: cell-based
# [1] = system: IRE1α-mediated XBP-1 mRNA splicing; assay: XBP-1 mRNA level and splicing in J558 cells (Northern blot, RT-PCR); settings: J558, Tm 4 hrs; MG-132 10 μM, PS-341 10 μM, ZL3VS 50 μM, AdaAhxL3VS 50 μM
# Method: (A) XBP-1 mRNA levels in ER stressed J558 cells treated with Tm for 4 hrs in the absence or presence of MG-132. Cells were pretreated with MG-132 for 1 hr before adding Tm. XBP-1 mRNA levels were determined by Northern blot analysis. […] (C) Effect of a panel of PIs on XBP-1 splicing. Cells were treated with Tm for 4 hrs in the absence or presence of MG-132 (10 μM), PS-341 (10 μM), Lactacystin (10 μM), ZL3VS (50 μM) or AdaAhxL3VS (50 μM), and XBP-1 mRNA splicing measured by RT-PCR analysis. (D) IRE-1α phosphorylation in NIH3T3 cells were treated with Tm as indicated after 2 hrs of pretreatment with MG-132 (10 μM).
# Total RNA was prepared by using Trizol reagent, electrophoresed on 1.2% agarose, 6% formaldehyde gels and then transferred onto Genescreen Plus membrane, (NEN, Boston, Mass.). […] Probes for ERdj4 and p58^IPK were generated from cDNA excised from EST clones (ATCC, Manassas, Va.) using appropriate restriction enzymes (ERdj4, IMAGE: 1920927; p58^IPK, IMAGE:2646147).
# XBP-1 protein = XBP-1 protein species in MOPC315 and MM.1S myeloma cells treated with proteasome inhibitors (Western blot); settings: mouse myeloma MOPC315 and human myeloma MM.1S
# Method: A variety of reversible and irreversible inhibitors that inhibit degradation of proteins by the ubiquitin-proteasome pathway have recently been identified. Proteasome inhibitors MG132 and PS341 block the rapid degradation of ubiquitinated proteins such as unspliced, but not spliced XBP-1. Myeloma cells express primarily spliced XBP-1 protein as expected. […] In this experiment lysates from MOPC315 cells were untreated or treated for 6 hours with 5 ug/ml of tunicamycin or 20 uM of MG-132 and were analyzed for the presence of XBP-1 using XBP-1 antibody. The two forms of XBP-1 were distinguished by their molecular weight.
# In the presence of proteasome inhibitors, unspliced XBP-1 protein accumulates in the cell and is present at higher levels than the spliced protein. Lysates from Mm. 1S cells were untreated or treated for 1, 4, or 8 hours with 20 uM of PS-341 and were analyzed by western blotting with anti-XBP-1 antibody. Because unspliced, but not spliced XBP-1 is stabilized, the ratio of unspliced to spliced XBP-1 increases in cells treated with proteasome inhibitors.
# J558 myeloma cells = assay: Apoptosis of J558 myeloma cells (Annexin V staining); settings: agent alone
# Method: (§1) (A) BiP and CHOP induction was examined by northern blot analysis after treating NIH3T3 or J558 myeloma cells with either MG-132 (20 μM), Tm (10 μg/ml) or both. Cells were pretreated with MG-132 for 1 hr and then further treated with Tm for 4 hrs. Ethidium bromide staining of the gel is shown at the bottom. (B) Inhibition of caspase-12 processing by proteasome inhibitors. Processing of full-length caspase-12 was examined by Western blotting in J558 myeloma cells treated with thapsigargin (1 μM) or PIs (20 μM) during the indicated time periods. (C) Alteration in the ratio of XBP-1 protein species in J558 cells were treated with increasing amounts of MG-132 for 16 hrs. Cells undergoing apoptosis were counted by Annexin V staining. (D) Time course of the XBP-1s to XBP-1u shift. Cells were treated with MG-132 (1 μM) for the indicated times and XBP-1u and spliced protein levels and cell death determined. (E) Alteration in the ratio of XBP-1 species in the MM.1s human myeloma line. Cells were treated with PS-341 (8 nM) in a time course analysis and XBP-1 protein species quantified.
# (A) Synergistic effect of Tm and MG-132 on apoptosis. Annexin V positive cells were counted after treating J558 cells for 18 hrs with suboptimal concentrations of Tm and MG-132 as indicated. (B) J558-iXBP cells were generated by retroviral transduction of J558 cells with the U6 promoter based XBP-1 RNAi vector. (C) XBP-1 dependent gene expression in J558 cells that express control GFP, dn-XBP or iXBP-1 treated with Tm. Generation of dn-XBP-1 J558 cells by infection with a retrovirus containing dn-XBP cDNA inserted into the GFP-RV vector (N. N. lwakoshi et al., Nature Immunology 4, 321-329 (2003)). ERdj4, p58^IPK, BiP and CHOP gene expression were examined by Northern blot analysis. (D) Increased apoptosis in iXBP-1 and dn-XBP-1 expressing J558 cells. Cells were treated with the indicated amounts of Tm for 48 hrs and dead cells counted after Annexin V staining.
# Cells were stained with annexin V-PE (BD PharMingen, San Jose, Calif.) as recommended and analyzed on a FACScan flow cytometer (Becton Dickinson, San Jose, Calif.).
# XBP-1s and XBP-1u = assay: Ratio of XBP-1 species in MM.1s line and primary MM cells; settings: human MM cell line MM.1s and primary MM cells from patient bone marrow
# Method: as §1
# [2] = system: XBP-1u and XBP-1s proteins; assay: XBP-1u and XBP-1s protein levels in J558 cells (Western blot); settings: J558 cells, 16 hrs
# Method: as §1
# Cells were lysed in RIPA buffer (50 mM Tris pH 7.4, 150 mM NaCl, 1 mM EDTA, 1% Triton X-100, 1% sodium deoxycholate, 0.1% SDS) and lysates subjected to SDS-PAGE and transferred to Hybond P membrane (Amersham-Pharmacia, Piscataway, N.J.). […] HeLa cells were cotransfected with XBP-1u and His-tagged ubiquitin expression plasmids (pMT 107, D. Bohmann, EMBL, Germany) by using the Lipofectamine-2000 reagent (Invitrogen, Carlsbad, Calif.). […] Degradation rates of XBP-1u and XBP-1s proteins were determined by pulse labeling J558 cells with ^35S Met/Cys for 1 hr and chasing for the indicated times.
structure (smiles),measurement,setting,value
CC(C)C[C@H](NC(=O)[C@H](Cc1ccccc1)NC(=O)c1cnccn1)B(O)O [PS-341],effect on Tm-induced XBP-1 mRNA splicing,[1],suppressed XBP-1 mRNA splicing as efficiently as MG-132
same,amount of unspliced XBP-1 protein,XBP-1 protein,dramatic increase in the amount of unspliced XBP-1 protein
same,levels of active spliced XBP-1 protein,XBP-1 protein,concomitant decrease in levels of the active spliced XBP-1 protein
same,apoptosis in J558 cells,J558 myeloma cells,induced apoptosis in J558 cells
same,shift in the ratio of XBP-1s to XBP-1u,XBP-1s and XBP-1u,induced the same marked shift in the ratio of XBP-1s to XBP-1u
same,XBP-1u accumulation and XBP-1s decrease,[2],striking accumulation of XBP-1 u and a concomitant decrease in XBP-1s proteins
